Values quoted from earlier work as cited in US8808752B2, “Controlled release particles and method for producing the same” (priority 2009, dated 2014).

Row | SMILES | water solubility (in words) | water solubility
1 | C=C(C)C(=O)OCCOC(=O)C(=C)C [Ethylene glycol dimethacrylate] | water-insoluble | 
2 | CSc1nc(NC2CC2)nc(NC(C)(C)C)n1 [MBACT, 2-methylthio-4-t-butylamino-6-cyclopropylamino-s-triazine, reference compound] |  | 7 ppm
3 | C=C(C)C(=O)O [Methacrylic acid] |  | 8.9 wt %
4 | CCCC1COC(Cn2cncn2)(c2ccc(Cl)cc2Cl)O1 (centres unmarked) [Propiconazole, 1-[2-(2,4-dichlorophenyl)-4-n-propyl-1,3-dioxolane-2-ylmethyl]-1H-1,2,4-triazole, reference compound] |  | 110 ppm
5 | C=C(C)C(=O)OCCCC [n-Butyl methacrylate] |  | 0.08 wt %
